Test results as given in patent US20210038607A1, “OXADIAZOLYLTHIOPHENE DERIVATIVES USEFUL AS HISTONE DEACETYLASE INHIBITORS” (Karus Therapeutics Limited, priority 2018, published 2021).

Experiments:
[1] = target: T1, Recombinant human HDAC6 (Homo sapiens, UniProt Q9UBN7); assay: HDAC6 biochemical assay, AMC-labeled peptide substrate; conditions: HDAC6; read-out: HDAC Isoform IC50 (nM) 6
T1 construct: full length, MW=159 kDa; GST (N); host or cells: Sf9 insect cells (baculovirus)
T1 sequence (Q9UBN7 1-1215): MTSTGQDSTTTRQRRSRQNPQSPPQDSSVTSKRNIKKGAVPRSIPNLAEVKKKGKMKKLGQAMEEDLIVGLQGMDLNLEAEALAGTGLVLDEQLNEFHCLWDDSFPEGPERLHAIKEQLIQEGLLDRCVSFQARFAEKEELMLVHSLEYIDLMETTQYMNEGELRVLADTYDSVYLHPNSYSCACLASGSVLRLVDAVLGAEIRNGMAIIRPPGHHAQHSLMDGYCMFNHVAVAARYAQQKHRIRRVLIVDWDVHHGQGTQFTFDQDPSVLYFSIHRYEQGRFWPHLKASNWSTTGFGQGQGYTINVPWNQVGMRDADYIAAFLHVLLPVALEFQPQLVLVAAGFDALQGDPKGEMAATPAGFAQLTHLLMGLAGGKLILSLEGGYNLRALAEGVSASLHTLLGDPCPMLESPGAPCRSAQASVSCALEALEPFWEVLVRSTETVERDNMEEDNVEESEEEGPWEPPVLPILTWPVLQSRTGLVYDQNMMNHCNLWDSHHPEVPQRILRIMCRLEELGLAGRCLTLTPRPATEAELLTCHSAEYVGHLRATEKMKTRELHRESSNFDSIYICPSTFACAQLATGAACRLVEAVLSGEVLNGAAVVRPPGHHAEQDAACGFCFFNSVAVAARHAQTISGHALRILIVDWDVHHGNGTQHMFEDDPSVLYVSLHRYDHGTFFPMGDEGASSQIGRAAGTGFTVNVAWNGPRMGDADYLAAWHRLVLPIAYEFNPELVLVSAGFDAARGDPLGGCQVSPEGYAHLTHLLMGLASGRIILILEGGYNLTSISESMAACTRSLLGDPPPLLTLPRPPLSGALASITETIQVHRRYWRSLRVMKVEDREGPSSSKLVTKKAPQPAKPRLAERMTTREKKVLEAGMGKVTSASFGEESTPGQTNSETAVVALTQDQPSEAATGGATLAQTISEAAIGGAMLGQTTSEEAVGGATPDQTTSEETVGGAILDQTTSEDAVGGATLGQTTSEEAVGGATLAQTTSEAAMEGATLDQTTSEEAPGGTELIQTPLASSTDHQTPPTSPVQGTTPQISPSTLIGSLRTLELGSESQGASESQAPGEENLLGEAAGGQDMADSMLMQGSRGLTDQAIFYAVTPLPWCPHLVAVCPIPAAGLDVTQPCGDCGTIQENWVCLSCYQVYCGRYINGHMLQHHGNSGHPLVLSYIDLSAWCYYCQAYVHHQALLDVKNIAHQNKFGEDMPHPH
Description: (§1) Activity against all zinc-dependent HDACs 1 to 11 was assessed by using an acetylated AMC-labeled peptide substrate. The substrate RHKK(Ac)AMC was used for HDAC1, HDAC2, HDAC3, HDAC6 and HDAC10; the substrate used for HDAC8 was RHK(Ac)K(Ac)AMC. Activity against the class IIa HDACs (HDAC4, 5, 7, 9) and HDAC11 was determined using a class IIa-specific substrate, BOC-Lys(trifluoroacetyl)-AMC (“Trifluoroacetyl Lysine”; see Lahm et al, 2007, PNAS, 104, 17335-17340). All assays were based on the AMC-labeled substrate and developer combination.
(§2) The protocol involved a two-step reaction: first, the substrate with the acetylated lysine side chain is incubated with a sample containing HDAC activity, to produce the deacetylated products, which are then digested in the second step by the addition of developer to produce the fluorescent signal proportional to the amount of deacetylated substrates.
Recombinant human HDAC6 (GenBank Accession No. BC069243), full length, MW=159 kDa, was expressed by baculovirus in Sf9 insect cells using an N-terminal GST tag.
(§3) Assay Buffer: 50 mM Tris-HCl, pH8.0, 137 mM NaCl, 2.7 mM KCl, 1 mM MgC2. Before use, 1 mg/mL BSA and DMSO are added.
HDAC6: 0.3 ng/ul HDAC6 and 50 μM HDAC substrate are in the reaction buffer with 1% DMSO final. Incubate for 1 hours at 30° C.
(§4) Stage 1: Deacetylation of substrate by incubation of HDAC enzymes with compounds
(§5) Stage 2: Development by addition of Developer to digest the deacetylated substrate, and generate the fluorescent colour; Detection: 360/460 Ex/Em

[2] = target: T2, Human HDAC4 (Homo sapiens, UniProt P56524); assay: HDAC4 biochemical assay, class IIa-specific substrate; conditions: read-out: HDAC Isoform IC50 (nM) 4
T2 construct: amino acids 627-1085 with N-terminal GST tag; GST (N); host or cells: baculovirus expression system
Description: as §1, §2
Human HDAC4 (GenBank Accession No. NM_006037), amino acids 627-1085 with N-terminal GST tag, MW=75.2 kDa, expressed in baculovirus expression system.
as §3
(§6) For class IIa HDACs, assay buffer is the same.
HDAC4: 0.004 ng/ul HDAC4 and 50 μM Class IIa HDAC substrate are in the reaction buffer with 1% DMSO final. Incubate for 30 minutes at room temperature.
as §4, §5

[3] = target: T3, Human HDAC5 (Homo sapiens, UniProt Q9UQL6); assay: HDAC5 biochemical assay, class IIa-specific substrate; conditions: read-out: HDAC Isoform IC50 (nM) 5
T3 construct: full length with C-terminal His tag, MW=51.1 kDa; His (C); host or cells: baculovirus expression system
Description: as §1, §2
Human HDAC5 (GenBank Accession No. NM_005474), full length with C-terminal His tag, MW=51.1 kDa, expressed in baculovirus expression system.
as §3, §6
HDAC5: 0.05 ng/ul HDAC5 and 50 μM Class IIa HDAC substrate are in the reaction buffer with 1% DMSO final. Incubate for 30 minutes at room temperature.
as §4, §5

[4] = target: T4, Human HDAC7 (Homo sapiens, UniProt Q8WUI4); assay: HDAC7 biochemical assay, class IIa-specific substrate; conditions: read-out: HDAC Isoform IC50 (nM) 7
T4 construct: (a.a. 518-end) with N-terminal GST tag; GST (N); host or cells: baculovirus expression system
T4 sequence (Q8WUI4 518-952 limits assumed): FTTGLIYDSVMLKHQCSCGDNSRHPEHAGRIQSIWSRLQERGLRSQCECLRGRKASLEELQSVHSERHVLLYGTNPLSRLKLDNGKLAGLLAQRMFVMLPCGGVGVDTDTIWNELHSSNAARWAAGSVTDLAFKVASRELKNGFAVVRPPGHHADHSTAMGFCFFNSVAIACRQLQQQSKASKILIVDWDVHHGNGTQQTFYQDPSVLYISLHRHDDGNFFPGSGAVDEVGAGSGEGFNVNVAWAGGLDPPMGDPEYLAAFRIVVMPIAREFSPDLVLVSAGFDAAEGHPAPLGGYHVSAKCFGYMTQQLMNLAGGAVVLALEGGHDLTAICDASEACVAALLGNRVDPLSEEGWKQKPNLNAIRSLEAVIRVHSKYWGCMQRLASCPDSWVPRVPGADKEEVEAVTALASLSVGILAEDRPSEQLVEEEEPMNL
Description: as §1, §2
Human HDAC7 (GenBank Accession No. AY302468), (a.a. 518-end) with N-terminal GST tag, MW=78 kDa, expressed in baculovirus expression system.
as §3, §6
HDAC7: 0.001 ng/ul HDAC7 and 50 μM Class IIa HDAC substrate are in the reaction buffer with 1% DMSO final. Incubate for 30 minutes at room temperature.
as §4, §5

[5] = target: T5, Human HDAC9 (Homo sapiens, UniProt Q9UKV0); assay: HDAC9 biochemical assay, class IIa-specific substrate; conditions: read-out: HDAC Isoform IC50 (nM) 9
T5 construct: amino acids 604-1066 with C-terminal His tag; His (C); host or cells: baculovirus expression system
Description: as §1, §2
Human HDAC9 (GenBank Accession No. NM_178423), amino acids 604-1066 with C-terminal His tag, MW=50.7 kDa, expressed in baculovirus expression system.
as §3, §6
HDAC9: 0.06 ng/ul HDAC9 and 50 μM Class IIa HDAC substrate are in the reaction buffer with 1% DMSO final. Incubate for 30 minutes at room temperature.
as §4, §5

[6] = target: T6, Human HDAC1 (Homo sapiens, UniProt Q13547); assay: HDAC1 biochemical assay, AMC-labeled peptide substrate; conditions: read-out: HDAC Isoform IC50 (nM) 1
T6 construct: full length with C-terminal His-tag and C-terminal FLAG-tag; His (C); FLAG (C); host or cells: baculovirus expression system
Description: as §1, §2
Human HDAC1 (GenBank Accession No. NM_004964), full length with C-terminal His-tag and C-terminal FLAG-tag, MW=56 kDa, expressed in baculovirus expression system.
as §3
HDAC1: 0.3 ng/ul HDAC1 and 50 μM HDAC substrate are in the reaction buffer with 1% DMSO final. Incubate for 1 hour at 30° C.
as §4, §5

T3 sequence (Q9UQL6 656-1122 limits assumed): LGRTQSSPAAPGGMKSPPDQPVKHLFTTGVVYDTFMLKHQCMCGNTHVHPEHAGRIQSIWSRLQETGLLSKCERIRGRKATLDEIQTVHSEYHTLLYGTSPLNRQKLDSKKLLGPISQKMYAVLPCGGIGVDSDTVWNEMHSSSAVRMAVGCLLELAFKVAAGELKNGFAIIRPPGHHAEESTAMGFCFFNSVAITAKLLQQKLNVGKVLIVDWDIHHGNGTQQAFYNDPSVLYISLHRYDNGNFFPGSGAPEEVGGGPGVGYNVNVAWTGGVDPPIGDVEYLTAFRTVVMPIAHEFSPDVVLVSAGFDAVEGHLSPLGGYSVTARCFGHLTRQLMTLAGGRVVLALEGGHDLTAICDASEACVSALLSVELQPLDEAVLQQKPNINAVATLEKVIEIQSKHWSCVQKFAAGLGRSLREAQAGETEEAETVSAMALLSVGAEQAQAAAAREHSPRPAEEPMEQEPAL
T2 sequence (P56524 627-1084 limits assumed): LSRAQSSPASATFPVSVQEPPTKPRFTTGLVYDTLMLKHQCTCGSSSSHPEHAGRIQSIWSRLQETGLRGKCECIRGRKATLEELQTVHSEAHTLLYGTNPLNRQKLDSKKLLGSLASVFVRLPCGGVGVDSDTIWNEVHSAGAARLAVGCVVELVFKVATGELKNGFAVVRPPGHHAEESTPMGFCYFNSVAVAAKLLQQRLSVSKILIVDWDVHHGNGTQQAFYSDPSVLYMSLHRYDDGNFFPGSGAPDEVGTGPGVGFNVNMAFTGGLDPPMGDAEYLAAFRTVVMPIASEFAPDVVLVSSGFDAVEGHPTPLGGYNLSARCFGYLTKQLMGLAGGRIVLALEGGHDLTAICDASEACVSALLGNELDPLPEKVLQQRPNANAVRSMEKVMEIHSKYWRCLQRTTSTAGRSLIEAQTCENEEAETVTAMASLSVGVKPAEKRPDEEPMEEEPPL
T5 sequence (Q9UKV0 604-1066 isoform Q9UKV0-5): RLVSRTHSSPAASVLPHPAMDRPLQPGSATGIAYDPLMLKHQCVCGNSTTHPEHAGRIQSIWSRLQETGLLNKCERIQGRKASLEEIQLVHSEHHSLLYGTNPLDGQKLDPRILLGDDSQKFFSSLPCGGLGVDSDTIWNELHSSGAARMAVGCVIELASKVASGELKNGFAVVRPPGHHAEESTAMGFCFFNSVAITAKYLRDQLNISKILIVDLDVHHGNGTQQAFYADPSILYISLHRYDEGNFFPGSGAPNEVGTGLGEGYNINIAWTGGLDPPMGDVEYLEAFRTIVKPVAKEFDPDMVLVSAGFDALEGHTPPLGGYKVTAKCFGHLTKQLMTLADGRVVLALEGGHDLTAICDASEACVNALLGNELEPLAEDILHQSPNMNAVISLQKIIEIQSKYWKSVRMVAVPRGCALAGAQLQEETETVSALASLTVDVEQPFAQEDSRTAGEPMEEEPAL
T6 sequence (Q13547 whole entry, canonical isoform): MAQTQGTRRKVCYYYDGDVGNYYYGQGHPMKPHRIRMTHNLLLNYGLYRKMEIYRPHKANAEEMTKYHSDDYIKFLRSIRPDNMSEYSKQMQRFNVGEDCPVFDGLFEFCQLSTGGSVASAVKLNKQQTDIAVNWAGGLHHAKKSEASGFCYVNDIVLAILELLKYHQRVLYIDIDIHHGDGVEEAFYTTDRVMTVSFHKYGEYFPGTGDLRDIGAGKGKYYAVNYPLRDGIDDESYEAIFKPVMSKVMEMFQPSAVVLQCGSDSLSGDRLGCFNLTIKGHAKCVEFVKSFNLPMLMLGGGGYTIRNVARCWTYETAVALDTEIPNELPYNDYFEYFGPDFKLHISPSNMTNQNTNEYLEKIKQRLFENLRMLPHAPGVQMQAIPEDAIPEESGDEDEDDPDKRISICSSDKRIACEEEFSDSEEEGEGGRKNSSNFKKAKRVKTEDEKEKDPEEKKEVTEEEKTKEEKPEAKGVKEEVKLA

Compound | IC50 [1] [nM] | IC50 [2] [nM] | IC50 [3] [nM] | IC50 [4] [nM] | IC50 [5] [nM] | IC50 [6] [nM]
Cc1ncc(N(Cc2ccc(-c3noc(C(F)(F)F)n3)s2)c2cnccn2)cn1 [Example CS, 2-Methyl-N-(pyrazin-2-yl)-N-({5-[5-(trifluoromethyl)-1,2,4-oxadiazol-3-yl]thiophen-2-yl}methyl)pyrimidin-5-amine] | ≤ 1000 | ≤ 500 | ≤ 1000 | ≤ 500 | ≤ 10000 | ≤ 10000
Cc1cnc(N(Cc2ccc(-c3noc(C(F)(F)F)n3)s2)c2cnccn2)c(C)n1 [Example BV, 3,5-Dimethyl-N-(pyrazin-2-yl)-N-({5-[5-(trifluoromethyl)-1,2,4-oxadiazol-3-yl]thiophen-2-yl}methyl)pyrazin-2-amine] | ≤ 10000 | ≤ 500 | ≤ 500 | ≤ 1000 | ≤ 1000 | > 10000
FC(F)(F)c1nc(-c2ccc(CN(c3cccnc3)c3cnccn3)s2)no1 [Example AO, N-(Pyridin-3-yl)-N-({5-[5-(trifluoromethyl)-1,2,4-oxadiazol-3-yl]thiophen-2-yl}methyl)pyrazin-2-amine] | ≤ 500 | ≤ 500 | ≤ 500 | ≤ 500 | ≤ 1000 | > 10000
FC(F)(F)c1nc(-c2ccc(CN(c3cnccn3)c3cnc(-c4ccco4)cn3)s2)no1 [Example BJ, 5-(Furan-2-yl)-N-(pyrazin-2-yl)-N-({5-[5-(trifluoromethyl)-1,2,4-oxadiazol-3-yl]thiophen-2-yl}methyl)pyrazin-2-amine] | ≤ 10000 | ≤ 1000 | ≤ 10000 | ≤ 10000 | ≤ 10000 | ≤ 10000

Now from value to molecule:

IC50 [1] [nM] | IC50 [2] [nM] | IC50 [3] [nM] | IC50 [4] [nM] | IC50 [5] [nM] | IC50 [6] [nM] | Compound
≤ 1000 | ≤ 1000 | ≤ 1000 | ≤ 1000 | ≤ 10000 | > 10000 | FC(F)(F)c1nc(-c2ccc(CN(c3cnccn3)c3nccnn3)s2)no1 [Example DE, N-(Pyrazin-2-yl)-N-({5-[5-(trifluoromethyl)-1,2,4-oxadiazol-3-yl]thiophen-2-yl}methyl)-1,2,4-triazin-3-amine]
≤ 10000 | > 10000 | ≤ 10000 | > 10000 | > 10000 | > 10000 | FC(F)(F)c1ccnc(N(Cc2ccc(-c3noc(C(F)(F)F)n3)s2)c2cnccn2)c1 [Example AI, N-({5-[5-(Trifluoromethyl)-1,2,4-oxadiazol-3-yl]thiophen-2-yl}methyl)-N-[4-(trifluoromethyl)pyridin-2-yl]pyrazin-2-amine]
≤ 10000 | ≤ 1000 | ≤ 1000 | ≤ 1000 | ≤ 1000 | > 10000 | Cc1nccc(N(Cc2ccc(-c3noc(C(F)(F)F)n3)s2)c2cnccn2)n1 [Example CA, 2-Methyl-N-(pyrazin-2-yl)-N-({5-[5-(trifluoromethyl)-1,2,4-oxadiazol-3-yl]thiophen-2-yl}methyl)pyrimidin-4-amine]
≤ 10000 | ≤ 10000 | ≤ 10000 | ≤ 1000 | ≤ 10000 | > 10000 | FC(F)(F)c1nc(-c2ccc(CN(c3cnccn3)c3ccc4nncn4n3)s2)no1 [Example DU, N-{[1,2,4]Triazolo[4,3-b]pyridazin-6-yl}-N-({5-[5-(trifluoromethyl)-1,2,4-oxadiazol-3-yl]thiophen-2-yl}methyl)pyrazin-2-amine]
≤ 10000 | ≤ 1000 | ≤ 1000 | ≤ 10000 | ≤ 10000 | ≤ 10000 | FC(F)(F)c1nc(-c2ccc(CN(c3cnccn3)c3cscn3)s2)no1 [Example T, N-(1,3-Thiazol-4-yl)-N-({5-[5-(trifluoromethyl)-1,2,4-oxadiazol-3-yl]thiophen-2-yl}methyl)pyrazin-2-amine]
≤ 10000 | ≤ 500 | ≤ 1000 | ≤ 1000 | ≤ 10000 | > 10000 | FC(F)(F)c1nc(-c2ccc(CN(c3cnc(C4CC4)nc3)c3cnccn3)s2)no1 [Example CU, 2-Cyclopropyl-N-(pyrazin-2-yl)-N-({5-[5-(trifluoromethyl)-1,2,4-oxadiazol-3-yl]thiophen-2-yl}methyl)pyrimidin-5-amine]
